# According to BindingDB's records for doi:10.1007/s10822-022-00478-x (Roche Innovation Center Basel, F. Hoffmann-La Roche Ltd., 2022):
# Target: cAMP and cAMP-inhibited cGMP 3',5'-cyclic phosphodiesterase 10A (Homo sapiens, UniProt Q9Y233)
# Assay: PDE10A assay
# Procedure, shortened: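 Human PDE10A (2 ng/well) preincubated 15 min RT with compound in HEPES pH 7.5, 10 mM MgCl2, BSA, then reacted 15 min with 50 nM [3H]cGMP/cGMP substrate. Stopped with Y-Si SPA beads; bound radioactivity counted, IC50 from four-parameter logistic, pIC50 = −log10(IC50).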
row,SMILES,IC50 [nM]
1,"Cc1ncc(C)n2nc(CCc3nc(N4CC5CC4C5)nn3C)nc12 [Roche-Dataset for PDE10A, Compound 524]",858
2,"CNC(=O)c1nn(C)cc1NC(=O)c1ccc2cc(-c3ccccc3)nn2c1 [Roche-Dataset for PDE10A, Compound 532]",195
3,"Cn1cc(-c2ccccc2)nc1/C=C/c1cc(Cl)nc(Cl)n1 [Roche-Dataset for PDE10A, Compound 543]",2310
4,"CN1CCN(c2nc3cc(NC(=O)c4c(C(=O)N5CCC5)cnn4C)ccc3s2)CC1 [Roche-Dataset for PDE10A, Compound 546]",392
5,"Cn1nc(-c2ccccn2)cc1NC(=O)c1cc(C(F)(F)F)ncc1Br [Roche-Dataset for PDE10A, Compound 547]",10000
6,"CCOC(=O)c1cnn(C)c1C(=O)Nc1ccn2nc(N(C)C)nc2c1 [Roche-Dataset for PDE10A, Compound 549]",314
7,"CNC(=O)c1cc2[nH]c(-c3ccccc3)nc2cc1NC(=O)c1cc(C)on1 [Roche-Dataset for PDE10A, Compound 557]",189
8,"CNC(=O)c1cc2[nH]c(-c3ccccc3)nc2cc1NC(=O)c1cc(C)nn1C(C)(C)C [Roche-Dataset for PDE10A, Compound 558]",944
9,"C[C@@H](NC(=O)c1ccc(NC(=O)c2nc(C3CC3)ccc2Nc2cncnc2)s1)c1ccccc1 [Roche-Dataset for PDE10A, Compound 563]",320
10,"NS(=O)(=O)c1ccc(CCNC(=O)c2nc(C3CC3)cnc2Nc2cncnc2)cc1 [Roche-Dataset for PDE10A, Compound 569]",300

# Next, values leading:
row,IC50 [nM],SMILES
1,10,"O=C(Nc1ccc2cc(-c3ccccc3)nn2c1)c1onc2ccc(Br)cc12 [Roche-Dataset for PDE10A, Compound 523]"
2,111,"CNC(=O)c1cc2[nH]c(-c3ccccc3)nc2cc1NC(=O)c1ccn(C)n1 [Roche-Dataset for PDE10A, Compound 526]"
3,18,"Cc1noc(C(=O)Nc2ccc3cc(-c4ccccc4)nn3c2)c1Br [Roche-Dataset for PDE10A, Compound 529]"
4,29,"CCn1nc(CCc2nc3c(C)ncc(C)n3n2)nc1N1CCCC1 [Roche-Dataset for PDE10A, Compound 533]"
5,7.96,"Cn1nc(-c2ccccn2)cc1NC(=O)c1c(C(=O)N2CCC2)cnn1C [Roche-Dataset for PDE10A, Compound 535]"
6,12,"O=C(Nc1ccn([C@]23C[C@H]4C[C@H](C[C@H](C4)C2)C3)n1)c1nc(C2CC2)ccc1Nc1cncnc1 [Roche-Dataset for PDE10A, Compound 537]"
7,5.06,"Cc1ccc2nc(Cl)c(OCc3nc(-c4ccccc4)cn3C)nc2c1 [Roche-Dataset for PDE10A, Compound 540]"
8,92,"Cc1cc(Nc2cncnc2)cc(C(=O)Nc2cc(-c3ccccn3)nn2C)n1 [Roche-Dataset for PDE10A, Compound 542]"
9,20,"O=C(Nc1ccc(-n2ccccc2=O)cc1)c1nc(C2CC2)ccc1Nc1cncnc1 [Roche-Dataset for PDE10A, Compound 545]"
10,9.76,"Cc1cccc(-c2cc(NC(=O)c3c(C(=O)N4CCC4)cnn3C)n[nH]2)n1 [Roche-Dataset for PDE10A, Compound 548]"
11,188,"Cn1nc(N2CCCC2)nc1/C=C/c1nc(N2CCCC2)nn1C [Roche-Dataset for PDE10A, Compound 550]"
12,6.79,"O=C(Nc1ccccc1)c1cccc(NC(=O)c2nc(C3CC3)ccc2Nc2cncnc2)c1 [Roche-Dataset for PDE10A, Compound 556]"
13,24,"Cc1ncc(C)n2nc(/C=C/c3nc(N4CC[C@@H](C)C4)nn3C)nc12 [Roche-Dataset for PDE10A, Compound 560]"
14,45,"Cc1ncc(C)n2nc(/C=C/c3nc(N4CC[C@H](C)C4)nn3C)nc12 [Roche-Dataset for PDE10A, Compound 566]"
15,39,"CN(C)c1nc2cc(NC(=O)c3c(C(=O)N4CCOCC4)cnn3C)ccn2n1 [Roche-Dataset for PDE10A, Compound 568]"
